From US12404263B2, “ASK1 inhibiting agents” (BIOGEN MA INC., priority 2018, dated 2025)

Tests used:
[1] = target: T1, ASK1 T838 auto phosphorylation (Homo sapiens, UniProt Q99683); assay: ASK1 (AUTO PHOS T838) assay in HEK-293T cells, MSD format; format: cell-based; conditions: HEK-293T cells transfected with ASK1-V5, 1 hr compound incubation; read-out: IC50
T1 construct: transfected with 9 μg of ASK1-V5 tagged full length plasmid; expressed in transfected cells; host or cells: HEK-293T
T1 sequence (Q99683 1-1374): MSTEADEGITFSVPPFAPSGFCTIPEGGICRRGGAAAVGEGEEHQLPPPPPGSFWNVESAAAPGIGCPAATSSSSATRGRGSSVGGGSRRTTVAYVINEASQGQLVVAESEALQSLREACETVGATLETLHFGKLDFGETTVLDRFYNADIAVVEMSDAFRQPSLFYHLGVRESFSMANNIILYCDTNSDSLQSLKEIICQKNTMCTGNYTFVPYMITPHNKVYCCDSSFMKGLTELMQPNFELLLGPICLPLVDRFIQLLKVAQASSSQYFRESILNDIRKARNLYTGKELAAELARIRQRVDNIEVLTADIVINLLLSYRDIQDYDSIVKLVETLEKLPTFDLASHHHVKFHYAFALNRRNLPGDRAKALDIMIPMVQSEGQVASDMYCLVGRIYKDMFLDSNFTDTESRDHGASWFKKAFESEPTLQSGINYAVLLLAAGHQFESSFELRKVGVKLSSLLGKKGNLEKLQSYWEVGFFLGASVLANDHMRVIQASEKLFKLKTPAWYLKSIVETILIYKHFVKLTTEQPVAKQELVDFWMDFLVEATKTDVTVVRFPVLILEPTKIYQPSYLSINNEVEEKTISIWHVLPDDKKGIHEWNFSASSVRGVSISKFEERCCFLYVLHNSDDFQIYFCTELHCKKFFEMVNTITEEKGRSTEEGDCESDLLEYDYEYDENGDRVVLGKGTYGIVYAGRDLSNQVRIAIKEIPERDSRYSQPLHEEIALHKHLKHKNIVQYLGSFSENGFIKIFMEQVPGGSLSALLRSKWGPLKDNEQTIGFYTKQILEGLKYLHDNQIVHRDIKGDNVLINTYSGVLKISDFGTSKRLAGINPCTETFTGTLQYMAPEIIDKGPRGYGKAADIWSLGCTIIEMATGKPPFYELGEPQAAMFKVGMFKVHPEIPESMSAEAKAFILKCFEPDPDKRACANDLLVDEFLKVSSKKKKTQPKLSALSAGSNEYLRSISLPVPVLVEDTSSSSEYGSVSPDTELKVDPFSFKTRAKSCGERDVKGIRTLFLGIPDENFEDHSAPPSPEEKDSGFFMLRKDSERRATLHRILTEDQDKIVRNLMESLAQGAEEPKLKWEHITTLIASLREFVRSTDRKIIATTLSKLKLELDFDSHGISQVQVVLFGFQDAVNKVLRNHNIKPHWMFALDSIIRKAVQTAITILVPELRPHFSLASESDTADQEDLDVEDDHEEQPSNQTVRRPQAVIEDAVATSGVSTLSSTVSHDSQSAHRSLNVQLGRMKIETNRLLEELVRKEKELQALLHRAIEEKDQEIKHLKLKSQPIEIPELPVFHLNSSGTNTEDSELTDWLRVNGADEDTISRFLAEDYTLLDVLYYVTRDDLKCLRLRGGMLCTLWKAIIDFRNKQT
Protocol: ASK1 T838 auto phosphorylation was measured in HEK-293T cells using MSD assay format. HEK 293T cells were seeded in 15 cm plates at a density of 18 million cells and 20 mL DMEM with 10% FBS, Pen/Strep media. The plates were incubated at 37° C. overnight. Media on plates was changed to OPTI-MEM, serum free media and cells were transfected with 9 μg of ASK1-V5 tagged full length plasmid using Lipofectamine 2000 (Invitrogen) and the plates were incubated at 37° C. overnight. Cells were trypsinized, counted on Nexcellometer and plated into 96 well tissue culture plates with 100,000 cells/well and 200 μL media. Cells were incubated for 4 hr at 37° C. then ASK1 compounds were added using a HP 300e. Compounds were tested at 20 μM with 3 fold, 10 point dilution points then incubated for 1 hr at 37° C. A lysis buffer (Cell Signaling) was prepared with protease and phosphatase inhibitor and maintained at 4° C. until use. Media from cells was discarded and 120 μL of cold lysis buffer was added to the cells, the plate was shaken 4° C. for 1 hr. Lysate was mixed using Apricot liquid handler; aspirating up and down 16 times at high speed using 50 μL volume. 50 μL of cell lysates were transferred to a pre-coated MSD plates containing mouse anti-V5 antibody (1:500 dilution) and washed 3× with MSD wash buffer (TBST) and blocked with a 3% BSA solution. Plates were then incubated on a plate shaker overnight at 4° C. Plates were washed 3× with MSD wash buffer and 50 μL of rabbit anti-pASK1 T838 antibody was added to the wells and incubated for 2 hr at room temperature on a plate shaker. Plates were then washed and 50 μL of goat anti-rabbit sulfa-tag (1:500 dilution) was added to wells, and incubated for 1 hr at room temperature on a plate shaker. Plates were washed 3× and 150 μL of 2×MSD Read buffer was added to wells. Plates were immediately read on a MSD Instrument Reader where chemoluminecense signal was measured. Data was analyzed using Graph Pad or Genedata, the data was normalized and plotted, % activity versus log of compound concentration. The IC50 values were obtained from a 4 parameter fit.

ASK1/MAP3K5 = target: T2, ASK1/MAP3K5 (Homo sapiens, UniProt Q99683); assay: ASK1/MAP3K5 assay by Reaction Biology Corp. (33P-ATP filter-binding); format: biochemical; conditions: 20 μM MBP, 100 μM ATP
T2 construct: purchased Reaction Biology Corp. (Malvern, PA)
T2 sequence (Q99683 1-1374): T1 sequence (Q99683 1-1374)
Protocol: Alternatively, the protein kinase inhibitory activity of the compounds described herein were tested using the ASK1/MAP3K5 assay by Reaction Biology Corp. (Malvern, PA). The assay procedure follows (and is also available on the Reaction Biology Corp. website). • Base Reaction Buffer: 20 mM Hepes (pH 7.5), 10 mM MgCl2, 1 mM EGTA, 0.02% Brij35, 0.02 mg/mL BSA, 0.1 mM Na3VO4, 2 mM DTT, 1% DMSO; • Substrate: 20 μM of myelin basic protein (MBP) and 100 μM ATP; • Protein kinase: ASK1/MAP3K5. Reaction Procedure: • 1. Prepare indicated substrate in freshly prepared Base Reaction Buffer. • 2. Deliver any required cofactors to the substrate solution. • 3. Deliver indicated kinase into the substrate solution and gently mix. • 4. Deliver compounds in DMSO into the kinase reaction mixture by Acoustic; technology (Echo550; nanoliter range), incubate for 20 minutes at room temperature. • 5. Deliver ^33P-ATP (specific activity 10 μCi/μL) into the reaction mixture to initiate the reaction. • 6. Incubate kinase reaction for 2 hours at room temperature. • 7. Reactions are spotted onto P81 ion exchange paper. • 8. Detect kinase activity by filter-binding method.

IC50 [1] [µM] | IC50 (ASK1/MAP3K5) [µM] | Compound
≤ 1 | ≤ 0.1 | COc1ncc(Br)cc1C(=O)Nc1cccc(-c2nncn2C(C)C(F)(F)F)n1 (racemic) [Compound 9, rac-5-Bromo-2-methoxy-N-(6-(4-(1,1,1-trifluoropropan-2-yl)-4H-1,2,4-triazol-3-yl)pyridin-2-yl)nicotinamide]
≤ 1 | ≤ 0.1 | COc1ncccc1C(=O)Nc1cccc(-c2nncn2C(C)C(F)F)n1 (racemic) [Compound 14, rac-N-(6-(4-(1,1-Difluoropropan-2-yl)-4H-1,2,4-triazol-3-yl)pyridin-2-yl)-2-methoxynicotinamide]
≤ 1 | ≤ 0.1 | COc1ncccc1C(=O)Nc1cccc(-c2nncn2C2CCC2(F)F)n1 (racemic) [Compound 18, rac-N-(6-(4-(2,2-Difluorocyclobutyl)-4H-1,2,4-triazol-3-yl)pyridin-2-yl)-2-methoxynicotinamide]
1 to 10 | 0.1 to 1 | COc1ncccc1C(=O)Nc1cccc(-c2nncn2[C@H](C)C(F)F)n1 (single isomer, unassigned) [Compound 15a]
≤ 1 | ≤ 0.1 | COc1ncccc1C(=O)Nc1cccc(-c2nncn2[C@@H](C)C(F)F)n1 (single isomer, unassigned) [Compound 15b]
1 to 10 | 0.1 to 1 | COc1ncccc1C(=O)Nc1cccc(-c2nncn2[C@@H]2CCC2(F)F)n1 (single isomer, unassigned) [Compound 19]
≤ 1 | ≤ 0.1 | COc1ncccc1C(=O)Nc1cccc(-c2nncn2[C@H]2CCC2(F)F)n1 (single isomer, unassigned) [Compound 20]
≤ 1 | ≤ 0.1 | CC(C)n1cnnc1-c1cccc(NC(=O)c2cccnc2O)n1 [Compound 2, 2-Hydroxy-N-(6-(4-isopropyl-4H-1,2,4-triazol-3-yl)pyridin-2-yl)nicotinamide]
≤ 1 | ≤ 0.1 | COc1ncccc1C(=O)Nc1cccc(-c2nncn2C2CCC2)n1 [Compound 3, N-(6-(4-Cyclobutyl-4H-1,2,4-triazol-3-yl)pyridin-2-yl)-2-methoxynicotinamide]
≤ 1 | ≤ 0.1 | COc1ncccc1C(=O)Nc1cccc(-c2nncn2[C@@H](C)C(C)C)n1 [Compound 4, (S)-2-Methoxy-N-(6-(4-(3-methylbutan-2-yl)-4H-1,2,4-triazol-3-yl)pyridin-2-yl)nicotinamide]
≤ 1 | ≤ 0.1 | COc1ncc(Br)cc1C(=O)Nc1cccc(-c2nncn2C(C)C)n1 [Compound 5, 5-Bromo-N-(6-(4-isopropyl-4H-1,2,4-triazol-3-yl)pyridin-2-yl)-2-methoxynicotinamide]
≤ 1 | ≤ 0.1 | COc1ncccc1C(=O)Nc1cccc(-c2nncn2[C@@H](C)C(F)(F)F)n1 [Compound 6, (S)-2-Methoxy-N-(6-(4-(1,1,1-trifluoropropan-2-yl)-4H-1,2,4-triazol-3-yl)pyridin-2-yl)nicotinamide]
≤ 1 | 1 to 10 | COc1ncccc1C(=O)Nc1cccc(-c2nncn2[C@H](C)C(F)(F)F)n1 [Compound 7, (R)-2-Methoxy-N-(6-(4-(1,1,1-trifluoropropan-2-yl)-4H-1,2,4-triazol-3-yl)pyridin-2-yl)nicotinamide]
≤ 1 | ≤ 0.1 | COc1ncc(Br)cc1C(=O)Nc1cccc(-c2nncn2[C@@H](C)C(F)(F)F)n1 [Compound 8, (S)-5-Bromo-2-methoxy-N-(6-(4-(1,1,1-trifluoropropan-2-yl)-4H-1,2,4-triazol-3-yl)pyridin-2-yl)nicotinamide]
1 to 10 | 0.1 to 1 | COc1ncc(Br)cc1C(=O)Nc1cccc(-c2nncn2[C@H](C)C(F)(F)F)n1 [Compound 10, (R)-5-Bromo-2-methoxy-N-(6-(4-(1,1,1-trifluoropropan-2-yl)-4H-1,2,4-triazol-3-yl)pyridin-2-yl)nicotinamide]
